We go through 3 compounds from PubChem BioAssay (NCI).

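These data come from cells grown in 96-well plates and exposed to compound for 48 hours at five concentrations. Abbreviation: GI50, concentration required for 50% inhibition of growth. The concentration for full growth arrest is given as TGI.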

Holding throughout (experiment): inhibition of tumour cell growth, NCI panel, 48 h
Experiment [1] deals with MALME-3M melanoma.
Experiment [2] concerns MOLT-4 leukemia.
The test system of experiment [3] is U251 CNS.
Experiment [4] relates to HCT-15 colon.
Experiment [5] has as its system RPMI-8226 leukemia.
Experiment [6] concerns SW-620 colon.
The subject of experiment [7] is M14 melanoma.
The subject of experiment [8] is T-47D breast.
The test system of experiment [9] is COLO 205 colon.
Experiment [10] concerns ACHN renal.

On to `CN1CCN(Cc2ccc(NC(=O)c3[nH]ncc3Nc3cc(OC4CCCC4)ncn3)cc2)CC1`, for which the GI50 in [1] is 2.05 µM; in experiment [2] it was 2.16 µM; in experiment [3], 3.38 µM; in [4], 1.24 µM; in [5] it was 2.94 µM; in experiment [6], 2.66 µM. In addition, the GI50 was 1.35 µM in experiment [7], 5.06 µM in experiment [8], 1.24 µM in experiment [9] and 1.09 µM in experiment [10]. For the same compound, the TGI was 5.43 µM in experiment [1]; 8.66 µM in experiment [2]; 12.7 µM in experiment [3]; 11 µM in experiment [4]; 6.71 µM in experiment [5]; 7.25 µM in experiment [6]. The TGI in [7] came out at 3.62 µM; in experiment [8], 21.5 µM; in experiment [9], 3.11 µM; in experiment [10] it was 3.1 µM.

As for `O=C1CC2OCC=C3CN4CCC56c7ccccc7N1C5C2C3CC46` (stereo not given) (tested in a mixture with another compound), the GI50 was greater than 50 µg/mL in [1]; 11.5 µg/mL in [2]; greater than 50 µg/mL in experiment [3]; greater than 50 µg/mL in experiment [4]; greater than 50 µg/mL in experiment [5]; greater than 50 µg/mL in experiment [6]. Besides, the GI50 in experiment [7], in [8], in experiment [9] and in [10] was greater than 50 µg/mL in each case. The TGI in experiment [1] was greater than 50 µg/mL; in experiment [2] it was 24.9 µg/mL; in experiment [3] it was greater than 50 µg/mL; in experiment [4] it was greater than 50 µg/mL; in experiment [5], greater than 50 µg/mL; in experiment [6], greater than 50 µg/mL. For the same compound, the TGI in experiment [7], in experiment [8], in experiment [9] and in experiment [10] was greater than 50 µg/mL each time.

Take `CC1(C)N=C(N)N=C(N)N1c1ccc(CCC(=O)Nc2cccc(S(=O)(=O)F)c2)cc1`: the GI50 in experiment [1] was 21.3 µM; in [2], 19.8 µM; in [3], 4.98 µM; in experiment [4], 30.7 µM; in experiment [5] it was 36.4 µM; in experiment [6] it was 5.87 µM. In addition, the GI50 was 6.69 µM in experiment [7], 68.7 µM in experiment [8], 41.1 µM in experiment [9] and 52.5 µM in experiment [10]. The TGI in experiment [1], in [2], in experiment [3], in [4], in experiment [5] and in experiment [6] was greater than 100 µM each time. Further, the TGI in experiment [7], in experiment [8], in [9] and in experiment [10] was greater than 100 µM throughout.
